# Read-outs that look alike come from different tables or passages of the source.
# Columns and labels:
# Format in all cases: in vivo, human
# [1] = Phase 1 single ascending dose study, urinary excretion; conditions: 10 mg dose; urine collected 24 hours
# Procedure: (§1) Blood samples for analytical assay of HM01 and the 3 major metabolites (M2, M6 and M9) were collected at pre-dose (within 60 minutes prior to drug administration), and at 0.25, 0.5, 1, 1.5, 2, 3, 4, 6, 8, 12, 16, 24, 30, 36, 48, 60 and 72 hours post dose (18 samples). Urine was collected for 24 hours after dosing. Blood and urine samples were analyzed for HM01 and its metabolites concentrations using validated LC-MS/MS methods.
# Additional parameters were derived from urine, i.e., Ae(0-24), the amount of the parent drug and metabolites excreted in 24 h, and CLR, the renal clearance.
# growth hormone (GH) = test: Phase 1 SAD pharmacodynamics, serum GH (ELISA)
# Procedure: (§2) Blood samples for determination of growth hormone (GH), insulin-like growth factor-1 (IGF-1), adrenocorticotropic hormone (ACTH), prolactin, cortisol and aldosterone in serum at pre-dose and 0.5, 1, 2, 3, 4, 6 and 24 hours post-dose were collected by venous puncture. All biomarkers were determined using enzyme linked immunosorbent assays (ELISA). Simplified nutritional appetite questionnaire based on appetite assessments at Day −1 after dinner, and on Day 1 pre-dose, 1, 2, 4, 8, and 24 hours after dosing. Stool diary starting on Day 1 until discharge on Day 4.
# Phase 1 SAD, stool diary = conditions: between dose groups
# Procedure: as §2
# [2] = Phase 1 single ascending dose study, plasma pharmacokinetics; conditions: for AUClast/D / Cmax/D / AUC∞/D / CL/F / λz / AUC(0-t) / Cmax / AUC(0-inf) / MRT / Vd/F: geometric mean; for AUC(0-t): po; for Vd/F: read-out: Vz/F
# Procedure: Single-center, randomized, double-blind, placebo-controlled, single ascending dose (SAD) study.
# Screening examinations were performed within 28 days prior to dosing. Eligible subjects returned to the study center in the morning of Day-1 and remained in-patient until discharge at 72 hours after dosing (morning of Day 4) if there were no safety issues. The oral dose was administered in the morning of Day 1. Subjects returned to the clinic 7 days after treatment, in the morning of Day 8 (±1 day), for the safety assessments.
# Healthy male non-smoking subjects, between 18 and 50 years of age inclusive, with a body mass index (BMI) between 18.5 and 29.9 kg/m^2 inclusive. Cohorts of 8 subjects per dose step were planned. Cohort 1 (10 mg or placebo) was stopped after dosing of 4 subjects. Cohorts 2 to 4 consisted of 8 subjects each, i.e., a total number of 28 subjects were randomized and completed the study. There were no withdrawals.
# HM01 HCl powder in gelatine capsules. Capsules with the strength of 0.1 mg and 1.0 mg and 10 mg for cohort 1 were available. • Cohort 1:10 mg HM01 • Cohort 2:0.1 mg HM01 Cohort 3:0.3 mg HM01 Cohort 4:1.0 mg HM01
# Subjects were dosed in a fasted state (no food for at least 8 hours). Access to food was restricted until 4 hours after dosing. Capsules were administered orally together with 240 mL water.
# as §1
# PK parameters estimated included Cmax (maximum observed concentration), Cmax/D (Cmax per dose unit), tmax (peak time), Clast (last measurable concentration above the lower limit of quantification), tlast (time of Clast), AUC(0-24) and AUClast (area under the plasma concentration-time curve from time zero to 24 hours and to the last measurable concentration, tlast, respectively), AUClast/D (AUClast per dose unit), AUC∞(area under the plasma concentration-time curve from time zero to infinity), AUC∞(/D (AUC∞ per dose unit), t1/2 (apparent terminal half-life), CL/F (systemic clearance after extravascular administration, only for the parent drug), Vz/F (apparent volume of distribution after extravascular administration, only for the parent drug), MRT (mean residence time).
# [3] = 0.1 mg HM01 single oral dose, N = 6
# [4] = 0.3 mg HM01 single oral dose, N = 6
# [5] = 0.3 mg HM01 single oral dose, n = 5
# [6] = 1.0 mg HM01 single oral dose, N = 6
# [7] = 10 mg HM01 single oral dose, N = 3
# [8] = male, human, plasma, 0.3 mg HM01 single oral dose, n = 5
# [9] = male, human, plasma, 1.0 mg HM01 single oral dose, N = 6
# [10] = male, human, plasma, 10 mg HM01 single oral dose, N = 3
structure (smiles),measurement,setting,value
"COc1ccc([C@H](C)NC(=O)N(C)[C@@H]2CCN(C)CC2(C)C)c(Cl)c1Cl.Cl [AC01/HM01, 1-[(1S)-1-(2,3-dichloro-4-methoxyphenyl)ethyl]-3-methyl-3-[(4R)-1-methyl-3,3-dimethyl-4-piperidyl]-urea]",fraction of the dose excreted in the urine,[1],Approximately 10%
same,GH increase,growth hormone (GH); 0.3 and 0.1 mg HM01,lower increases
same,GH increase,growth hormone (GH); 1.0 and 10 mg HM01,higher
same,"mean GH curves, comparison of doses",growth hormone (GH); 1.0 vs 10 mg HM01,similar
same,time of peak GH concentrations,growth hormone (GH); after single oral administration,2-3 hours post-dose
same,concentrations of GH vs baseline,"growth hormone (GH); after single oral administration, healthy males",increased from baseline
same,number of bowel movements per day and number of subjects with bowel movement,"Phase 1 SAD, stool diary",no dose-related differences
same,AUClast/D,[2]; [3],4.899 (h * ng/mL)/mg
same,Cmax/D,[2]; [3],1.357 (ng/mL)/mg
same,tlast,"[2]; 0.1 mg HM01 single oral dose, N = 6, median",8.00 h
same,AUClast/D,[2]; [4],9.396 (h * ng/mL)/mg
same,Cmax/D,[2]; [4],0.9554 (ng/mL)/mg
same,tlast,"[2]; 0.3 mg HM01 single oral dose, N = 6, median",16.00 h
same,AUC∞/D,[2]; [5],15.19 (h * ng/mL)/mg
same,CL/F,[2]; [5],65.8 L/h
same,λz,[2]; [5],0.0821 h⁻¹
same,AUClast/D,[2]; [6],14.71 (h * ng/mL)/mg
same,AUC∞/D,[2]; [6],16.94 (h * ng/mL)/mg
same,CL/F,[2]; [6],59.0 L/h
same,Cmax/D,[2]; [6],1.280 (ng/mL)/mg
same,λz,[2]; [6],0.0648 h⁻¹
same,tlast,"[2]; 1.0 mg HM01 single oral dose, N = 6, median",36.00 h
same,AUClast/D,[2]; [7],17.61 (h * ng/mL)/mg
same,AUC∞/D,[2]; [7],17.88 (h * ng/mL)/mg
same,CL/F,[2]; [7],55.9 L/h
same,Cmax/D,[2]; [7],1.528 (ng/mL)/mg
same,λz,[2]; [7],0.0646 h⁻¹
same,tlast,"[2]; 10 mg HM01 single oral dose, N = 3, median",72.00 h
same,half-life,"[2]; male, human, plasma, oral, similar for all doses, read-out: arithmetic mean half-life of HM01",9 to 11 h
same,clearance,"[2]; male, human, plasma, oral, similar for all doses, read-out: geometric mean clearance of HM01",932 to 1100 mL/min
same,Tmax,"[2]; male, human, plasma, oral, similar for all doses, read-out: median tmax of HM01",3 to 4 h
same,apparent volume of distribution (Vz/F),"[2]; male, human, plasma, oral, similar for all doses, read-out: volume of distribution of HM01",801 to 911 L
same,AUC(0-t),"[2]; male, human, plasma, 0.1 mg, 0.1 mg HM01 single oral dose, fasted healthy males, N = 6, read-out: AUClast",0.49 ng·h/mL
same,AUC(0-t),"[2]; male, human, plasma, 0.3 mg, 0.3 mg HM01 single oral dose, N = 6, read-out: AUClast",2.82 ng·h/mL
same,AUC(0-t),"[2]; male, human, plasma, 0.3 mg, 0.3 mg HM01 single oral dose, fasted healthy males, N = 6, read-out: AUC0-24h",3.75 ng·h/mL
same,AUC(0-t),"[2]; male, human, plasma, 1 mg, 1.0 mg HM01 single oral dose, N = 6, read-out: AUClast",14.7 ng·h/mL
same,AUC(0-t),"[2]; male, human, plasma, 1 mg, 1.0 mg HM01 single oral dose, fasted healthy males, N = 6, read-out: AUC0-24h",13.4 ng·h/mL
same,AUC(0-t),"[2]; male, human, plasma, 10 mg, 10 mg HM01 single oral dose, N = 3, read-out: AUClast",176 ng·h/mL
same,AUC(0-t),"[2]; male, human, plasma, 10 mg, 10 mg HM01 single oral dose, fasted healthy males, N = 3, read-out: AUC0-24h",149 ng·h/mL
same,Cmax,"[2]; male, human, plasma, 0.1 mg HM01 single oral dose, N = 6",0.136 ng/mL
same,Tmax,"[2]; male, human, plasma, 0.1 mg HM01 single oral dose, N = 6, median, read-out: tmax",3 h
same,Cmax,"[2]; male, human, plasma, 0.3 mg HM01 single oral dose, N = 6",0.287 ng/mL
same,Tmax,"[2]; male, human, plasma, 0.3 mg HM01 single oral dose, N = 6, median, read-out: tmax",4 h
same,half-life,"[2]; male, human, plasma, 0.3 mg HM01 single oral dose, n = 5, arithmetic mean, read-out: t1/2 (converted)",8.83 h
same,AUC(0-inf),[2]; [8],4.56 ng·h/mL
same,MRT,[2]; [8],14.4 h
same,Vd/F,[2]; [8],801 L
same,half-life,"[2]; male, human, plasma, 1.0 mg HM01 single oral dose, N = 6, arithmetic mean, read-out: t1/2 (converted)",11 h
same,AUC(0-inf),[2]; [9],16.9 ng·h/mL
same,Cmax,[2]; [9],1.28 ng/mL
same,MRT,[2]; [9],15.3 h
same,Vd/F,[2]; [9],911 L
same,Tmax,"[2]; male, human, plasma, 1.0 mg HM01 single oral dose, N = 6, median, read-out: tmax",4 h
same,half-life,"[2]; male, human, plasma, 10 mg HM01 single oral dose, N = 3, arithmetic mean, read-out: t1/2 (converted)",10.9 h
same,AUC(0-inf),[2]; [10],179 ng·h/mL
same,Cmax,[2]; [10],15.3 ng/mL
same,MRT,[2]; [10],14.2 h
same,Vd/F,[2]; [10],866 L
same,Tmax,"[2]; male, human, plasma, 10 mg HM01 single oral dose, N = 3, median, read-out: tmax",3 h
same,dose dependence of AUC∞,[2]; single oral doses of HM01,dose proportional increase
same,dose dependence of max,[2]; single oral doses of HM01,dose proportional increase

# — US12648941B2, “Piperidine urea derivatives for use as inotropic agents” (Helsinn Healthcare SA, priority 2021, dated 2026)
